This note sets out measurements from patent US20050250113A1, “Mammalian magnesium/manganese sensing G protein coupled receptor” (The Regents of the University of California, priority 2004, published 2005).

One experiment concerns the target T1, R5.24 (Homo sapiens, UniProt Q5T6X5).
T1 construct: expressed in transfected cells; host or cells: human embryonic kidney (HEK) cells containing Gα16-Gαz and/or Gα15 promiscuous G proteins
T1 sequence (Q5T6X5 19-926): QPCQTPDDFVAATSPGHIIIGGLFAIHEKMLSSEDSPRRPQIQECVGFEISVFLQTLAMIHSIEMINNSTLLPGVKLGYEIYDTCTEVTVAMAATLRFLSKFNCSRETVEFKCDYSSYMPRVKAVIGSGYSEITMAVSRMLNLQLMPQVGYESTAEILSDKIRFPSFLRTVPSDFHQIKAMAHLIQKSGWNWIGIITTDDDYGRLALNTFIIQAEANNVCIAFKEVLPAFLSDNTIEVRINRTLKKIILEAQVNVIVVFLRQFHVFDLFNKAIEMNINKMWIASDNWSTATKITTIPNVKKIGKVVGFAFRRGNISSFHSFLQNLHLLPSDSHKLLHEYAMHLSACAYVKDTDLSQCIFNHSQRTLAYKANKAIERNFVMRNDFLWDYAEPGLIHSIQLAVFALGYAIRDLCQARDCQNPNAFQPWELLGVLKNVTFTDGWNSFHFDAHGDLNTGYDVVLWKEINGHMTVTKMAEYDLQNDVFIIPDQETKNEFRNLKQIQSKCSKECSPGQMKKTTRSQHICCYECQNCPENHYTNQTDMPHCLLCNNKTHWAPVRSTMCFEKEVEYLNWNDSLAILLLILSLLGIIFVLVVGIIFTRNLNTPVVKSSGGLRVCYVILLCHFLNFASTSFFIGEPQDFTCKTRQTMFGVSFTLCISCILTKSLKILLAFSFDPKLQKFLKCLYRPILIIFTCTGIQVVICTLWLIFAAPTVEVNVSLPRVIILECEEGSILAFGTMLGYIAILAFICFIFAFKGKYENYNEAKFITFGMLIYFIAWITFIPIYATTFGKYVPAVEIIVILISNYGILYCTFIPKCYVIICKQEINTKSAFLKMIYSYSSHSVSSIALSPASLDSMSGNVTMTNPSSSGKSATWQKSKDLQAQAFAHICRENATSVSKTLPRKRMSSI
Nature of the experiment: Activity assay for R5.24 receptor: stimulus-evoked changes in intracellular calcium in cells expressing R5.24. Particulars: FIG. 1 middle panels, calcium signal. The class given is cell-based. The source says: (§1) Candidate receptors are expressed in human embryonic kidney (HEK) cells containing, e.g., the Gα16-Gαz and/or Gα15 promiscuous G proteins (Offermanns et al., J. Biol. Chem. 270:15175-15180 (1995); Mody et al., Mol. Pharmacol. 57:13-23 (2000)), and assayed for stimulus-evoked changes in intracellular calcium. In this system, receptor activation leads to activation of phospholipase Cβ (PLC-β and release of calcium from internal stores, which can be monitored at the single-cell level using calcium-indicator dyes (Chandrashekar et al., Cell 100:703-711 (2000); Nelson et al., Cell 106:381-390 (2001); Tsien et al., Cell Calcium 6:145-157 (1985)).
On the technique in general: A change in cytosolic calcium serves as a functional read-out for many receptors and channels.

Experiment [1] has as its system cells without the receptor. The experiment is described as follows: Activity assay control: cells without the receptor stimulated with magnesium or manganese. The class given is cell-based, human. The conditions noted are these: FIG. 1 right panels.
Excerpt: as §1

SMILES strings stand for the structures.

With `[Mg+2]` [magnesium], on R5.24, the “response of cells expressing R5.24 to stimulation” value is recorded as “respond”. Also, the “response of cells without the receptor to stimulation” value in experiment [1] is listed as “do not respond”.
The like results for `[Mn+2]` [manganese] were, in that order, “respond” and “do not respond”.
